Experimental data published in patent publication US20230405000A1, “TABLET FOR USE IN TREATING HUNTINGTON'S DISEASE AND METHOD OF MAKING THE SAME” (PTC THERAPEUTICS, INC., priority 2020, published 2023).
“Also recorded” adds a separate entry of the source.

Key:
[1] = Phase 1 study: safety and tolerability in healthy subjects; format: in vivo, human
Description: Phase 1 Dose Escalation Study was initiated to assess the safety and pharmacokinetics of Compound 1 Oral Tablets (5 mg and 50 mg) compared to placebo in healthy subjects.
(i) To characterize the safety and tolerability of single ascending doses of Compound 1 in healthy subjects; (ii) To characterize the safety and tolerability of Compound 1 administered for 14 or up to 21 days in healthy subjects; (iii) To characterize the pharmacokinetics in plasma and cerebrospinal fluid (CSF) after administration of Compound 1 for 7 days in healthy subjects; (iv) To characterize the food effect on the pharmacokinetics (PK) in plasma of Compound 1 after administration of a single dose of Compound 1 in healthy subjects; and, (v) To characterize the safety and tolerability of Compound 1 administered for up to 28 days in healthy subjects.
The study was monitored by a Safety Review Committee (SRC). […] Safety and tolerability was assessed by the SRC between each cohort prior to ascending from one dose level to the next higher dose level in Part 1 (single ascending dose [SAD]) and fart 2 (multiple ascending dose [MAD]), and prior to initiating Part 3 (CSF), Part 4 (FE), and Part 5.
The following parameters were defined as parameters regarding safety and tolerability: […]
Change from baseline to each scheduled time point up to EOS for vital signs; Change from baseline to each scheduled time point up to EOS for ECG parameters; Change from baseline to each scheduled time point up to EOS for clinical laboratory tests; Changes from baseline in C-SSRS scores (Part 2, Part 3, and Part 5 only); Treatment-emergent adverse events (AEs) up to EOS; Treatment-emergent AEs leading to premature discontinuation of study drug; Treatment-emergent serious adverse events (SAEs) up to FOS; and, Abnormalities in physical examination.

HTT mRNA = test: Phase 1 study: HTT mRNA in whole blood of healthy volunteers (RT-PCR); format: in vivo, human
Text: (i) To explore the effect of single dose of Compound 1 administered on huntingtin (HTT) premRNA splicing in the blood of healthy subjects; (i) To explore the effect of Compound 1 administered for 14 or up to 21 days on HTT pre-m RNA splicing and HTT protein levels in the blood of healthy subjects; (ii) To explore the effect of single dose of Compound 1 administered (with food) on HTT pre-mRNA splicing in the blood of healthy subjects; and, (iii) To explore the effect of Compound 1 administered for up to 28 days on HTT premRNA splicing and HTT protein levels in the blood of healthy subjects.
The single ascending dose (SAD) part of the study was randomized, double-blinded, and placebo controlled in healthy male and female subjects.
The multiple ascending (MAD) part of the study was randomized, double-blind, and placebo controlled in healthy male and female subjects. Up to five regimens are planned to be tested in up to 5 cohorts of 8 subjects each (Cohort 2.1 to 2.5). Within each cohort, 6 subjects were to receive Compound 1 and 2 subjects were to receive placebo. Subjects in Cohort 2.1 and 2.2 were to be dosed for 14 days, subjects in Cohort 2.3 to 2.5 were to be dosed for up to 21 days.
The amount of HTT mRNA was then evaluated by RT-PCR 6 hours after administration of Compound 1 on day 14.
Results from measurement of HTT RNA in the whole blood of human subject administered a placebo or 15 or 30 mg of Compound 1, as described in the Multiple Ascending Dose (MAD) study above are illustrated in FIG. 15. HTT splicing was monitored after the final dose at day 14, calculated as % HTT remaining from baseline (pre-dose day 0).

[2] = Phase 1 study: Compound 1 levels in CSF compared with plasma; format: in vivo, human
Text: The concentrations of Compound 1 in plasma and CSF were to be assessed in an open-label design in healthy male and female subjects. A single dose of Compound 1 was to be administered daily for 7 days in 1 cohort of 6 subjects (Cohort 3.1) The dose level of Part 3 was to be determined based upon a review of the safety, tolerability, and PK data of Part 1 and Part 2 of the study. While the MAD dose was to be determined further in development, that dose and schedule was to be applied to this part of the study.
Eligibility was to be assessed during a screening period of up to 28 days. Subjects were to check into the clinic 1 day before dosing (Day −1). On the morning of Day 1 to Day 7, Compound 1 was to be orally administered after an overnight fast of at least 10 hours each day. Serial sampling of CSF and sampling of plasma for drug concentrations was to be performed on Day 7 The exact timing of the CSF and blood samples was to be determined based on the results of Part 1 and Part 2. Subjects were to be released from the clinic on Day 9 after all required study procedures are completed and if medically appropriate. A follow-up safety phone call was to occur 4 weeks (±1 week) after discharge on Day 9.
The CSF sampling enabled the evaluation of pharmacokinetics of Compound 1 in the CSF wherein Compound 1 levels in the CSF were compared with Compound 1 levels in plasma. […] The food effect portion enabled the evaluation of pharmacokinetics of Compound 1 in plasma after administration of a single dose of Compound 1 in healthy subjects.

Rat toxicology (NOAEL) = format: in vivo; settings: male rats
Description: The initial dose in the first cohort was ≥ 1/10 of the human equivalent dose (HED) estimated from the NOAEL (no observed adverse effect level) of the (male) rat, which is the most sensitive species, following the FDA guidance on the maximum recommended starting dose (MRSD) and EMA guidelines. The NOAEL of the rat is 6 mg/kg. […] The HED of 0.97 mg/kg was calculated; this scaled in a 70 kg human to 68 mg. Adjusting this dose to 1/10, the dose of the first cohort was 6.8; the actual administered dose will be 5 mg.

human HTT = test: Transgenic mouse models of Huntington's disease; format: in vivo
Text: An international application published as WO2020/005873 identified a genus of compounds that can be used in the treatment of HD, methods of making the same and pharmaceutical formulations of the same. […] At present, only symptomatic treatments are available. Thus, to date, there is no small molecule therapy available to slow the progression of HD. Accordingly, there is a need for small molecule disease-modifying therapies for HD (i.e. therapeutic options that can slow disease progression).
At the selected doses of 10 mg QD and 20 mg QD, the predicted percent full-length HTT mRNA decreases are within the target range of 30 to 50% reduction from baseline. […] Therefore, the observed preclinical HTT mRNA changes are anticipated to result in similar decreases in HTT protein levels in HD patients. Thus, based upon the totality of the clinical and preclinical safety data to date, and the anticipated reduction in HTT mRNA and protein derived from clinical data and pharmacokinetic-pharmacodynamic modeling, the doses of 10 mg and 20 mg are expected to be safe, well tolerated, and beneficial to subjects with HD.

[3] = Compound 1 in CSF and free plasma of non human primates; format: in vivo
Description: The two subjects in this cohort received 30 mg daily dose.

Structure (SMILES): CC1(C)CC(n2nnc3cc(-c4ccc(-n5nccn5)cc4O)nnc32)CC(C)(C)N1 [Compound 1, 2-[3-(2,2,6,6-tetramethylpiperidin-4-yl)-3H-[1,2,3]triazolo[4,5-c]pyridazin-6-yl]-5-(2H-1,2,3-triazol-2-yl)phenol]
- overall incidence of AEs ([1]; SAD and MAD portions, versus placebo): comparable between subjects who received placebo and those who received Compound 1
- laboratory abnormalities or ECG findings ([1]; any dose, SAD and MAD portions): no clinically significant laboratory abnormalities or electrocardiogram (ECG) findings
- safety and tolerability ([1]; healthy subjects, single doses 5 mg to 135 mg, multiple doses 15 mg and 30 mg up to 21 days): well-tolerated with no safety-related findings; also recorded: safe and generally well tolerated
- lowering of HTT mRNA in whole blood (HTT mRNA; MAD cohort, 15 mg or 30 mg for 14 days, 6 hours after dose on day 14): dose-dependent lowering
- time of treatment until HTT mRNA levels reached steady state (HTT mRNA; Multiple Ascending Dose Study): 4 to 5 days
- lowering of HTT mRNA in whole blood (HTT mRNA; SAD cohort, 24 hours after single dose of 5, 15, 45, 90 or 135 mg): dose-dependent lowering
- Compound 1 levels in the CSF compared with plasma ([2]; healthy subjects, 30 mg daily dose): equal to or greater than levels observed in plasma; also recorded: at least equivalent or greater than levels observed in the plasma
- blood brain barrier penetration ([2]; humans): crossed the blood brain barrier
- efflux ([2]; humans): not subject to efflux
- observation that set the NOAEL (Rat toxicology (NOAEL)): germ cell exfoliation in epididymis and testes
- relation of HTT pre-mRNA splicing to protein lowering (human HTT; bacterial artificial chromosome transgenic mouse model of HD): strong correlation between levels of HTT pre-mRNA splicing and the degree of protein lowering
- reduction of human HTT production in vivo (human HTT; transgenic mouse models of Huntington's disease, results not yet published): effective in reducing human HTT production in vivo
- blood brain barrier penetration [3]: crosses the Blood Brain Barrier
